Measurements published in article PMC5008412, “A phase I study of indoximod in patients with advanced malignancies” (Oncotarget, 2016).

Key:
[1] = tested on: Lewis lung cancer mouse xenografts; design: method as in PMID 15711557, PMID 16166276; conditions: transplanted Lewis lung cancer mouse xenografts; cited from earlier work
[2] = tested on: 30 different tumor-associated antigens; assay: Autoantibody titers to tumor-associated antigens (Serametrix protein microarray); type: in vivo, human; conditions: week 5; of 40 patients evaluated; P < 0.05
Protocol: (§1) Plasma kynurenine and tryptophan levels were measured via high-performance liquid chromatography at baseline and during weeks 1-4 of treatment using previously published methods. Humoral responses toward multiple cancer-testis antigens were analyzed by a proprietary whole protein microarray (Serametrix, Carlsbad, CA) in a 200-μL plasma aliquot, collected at blood draws at baseline and at week 5. Autoantibody titers were reported as relative fluorescence units using human anti-IgG reporter antibodies with blank and predetermined IgG antibody titer control spots using a Perkin Elmer fluorescence scanner.

[3] = design: method as in PMID 17234791; conditions: combined with cyclophosphamide; compared among forms of 1-methyl-tryptophan; cited from earlier work
C-reactive protein = C-reactive protein levels; type: in vivo, human
Excerpt: Physical examinations, autoimmunity evaluations, complete blood counts, metabolic panels, and C-reactive protein levels were obtained at baseline and every 2 weeks. Pituitary function tests (thyroid-stimulating hormone, free T4, luteinizing hormone, follicular stimulating hormone, and adrenocortical hormone) and anti-nuclear autoantibody titers were obtained at baseline and every 4 weeks.

advanced solid tumors = assay: Response evaluation by RECIST 1.1; type: in vivo, human
Protocol: Overall response rate was determined via the criteria described by the RECIST 1.1 guidelines. Baseline evaluations were conducted within 14 days before start of therapy, with CT scans performed within 4 weeks before start of therapy. Patients were then reevaluated every 8 weeks with diagnostic CT scans. The best overall response achieved during study therapy was recorded for each patient. The response data presented herein underwent site radiology review. The duration of response was measured from the time criteria were met for complete or partial response until the first date that recurrent or progressive disease was documented.

[4] = tested on: circulating T cell populations; assay: T-cell flow cytometry panel on patient blood; type: in vivo, human
Excerpt: At weeks 1, 3, 5, and 7 of treatment, patient blood was collected into 3 heparinized 10-mL Vacutainer tubes. Samples underwent Ficoll separation and cryopreservation for subsequent analyses. A total of 16 patients across dose levels 4-10 had satisfactory samples collected at all 4 time points for multiparameter flow analyses (see Table 1 for definition of dose levels). Flow cytometry analyses using a T-cell panel (CCR6-FITC, CD45RO-PerCP-Cy5, CD45RA-BV421, HLADR-BV650, CD4-PE, CD25-PECy7, CD127-Alexa 647, CD3- BUV395, Live/Dead Aqua, CD8-BUV737) to determine changes in circulating levels of T-regulatory cells (CD4+CD25+CD127low), naïve (CD45RA+) versus memory (CCR6+/−CD45RO+) CD4 and CD8 T cells, and activated T-cell subsets (HLA-DR+) were carried out in the Moffitt Flow Cytometry Core on an LSRII with compensation beads and fluorescence minus one controls. Gating was done using fluorescence minus one thresholds, and analyses were done using FloJo X software. Mean percentages of the populations were calculated from single, live, CD3+-gated events and analyzed across the 4 time points for the entire group, with lower (dose levels 4-8) versus higher (dose levels 9-10) dose levels compared using ANOVA in Prism GraphPad. P levels of 0.05 indicated significance.

IDO = assay: Plasma kynurenine/tryptophan pharmacodynamics (HPLC); type: in vivo, human
Protocol: as §1

[5] = Plasma pharmacokinetics (LC-MS/MS, non-compartmental); type: in vivo, human
Protocol: A validated liquid chromatography triple-quadrupole with tandem mass spectrometry method was used to determine levels of indoximod in plasma. The methods were validated per International Conference on Harmonization/Food and Drug Administration guidelines. Plasma samples were prepared for chromatographic injections by protein precipitation as described in Supplement 1.
Plasma concentration-time data for indoximod were analyzed by non-compartmental pharmacokinetic methods using Phoenix WinNonlin 6.3 (Pharsight Corp., Mountain View, CA). Data in the terminal, log-linear phase were analyzed by linear regression to estimate terminal elimination rate constant and half-life. These additional pharmacokinetic parameters were also determined: AUC0-48, AUC0-inf, Cmax, Tmax, terminal half-life (t1/2), apparent clearance, and apparent volume of distribution.

SMILES | effect on tumor growth [1] | patients with significantly higher autoantibody titers than at baseline [2] | in vivo antitumor activity [3] | C reactive protein (CRP) levels (C-reactive protein; across multiple dose levels) | mean level of C-reactive protein (C-reactive protein; week 3 of treatment, baseline 3.81 mg/dL, P = 0.02) [mg/dL] | patients with stable disease >6 months (advanced solid tumors; of 48 patients) | single-agent antitumor activity (advanced solid tumors; patients with advanced solid tumors) | best response (advanced solid tumors; site radiologist assessment, RECIST 1.1) | changes in T cell populations (Treg, naive/memory CD4 and CD8, activated subsets) ([4]; baseline through week 7, group as a whole) | dose-dependent changes in T cell populations ([4]; higher dose levels versus lower dose levels) | effect on circulating kynurenine levels (IDO) | half-life ([5]; human, plasma, po) [h] | Cmax ([5]; human, plasma, 2000 mg twice/day oral) [µM] | dose range with linear dose response of AUC and Cmax ([5]; oral) | single doses with plateauing of peak serum levels ([5]; oral) [mg] | drug renally cleared ([5]; patients) [%] | oral bioavailability ([5]; patients) | time at which Cmax occurred ([5]; plasma, oral) [h] | anticipated therapeutic dose of 10 to 15 μM ([5]; serum drug level with current dosing schedules)
Cn1cc(CC(N)C(=O)O)c2ccccc21 (racemic) [1-methyl-DL-tryptophan] | delaying growth |  |  |  |  |  |  |  |  |  |  |  |  |  |  |  |  |  | 
Cn1cc(C[C@@H](N)C(=O)O)c2ccccc21 [indoximod, 1-methyl-D-tryptophan] |  | 12 | superior | increased | 5.13 | 5 | modest | stable disease | did not identify any statistically significant changes | no detectable dose-dependent changes | lack of effect | 10.5 | ~12 | up to 800 mg once daily | ≥ 1600 | 20 | good | 2.9 | reached
